# From publication PMC11969009 (Nature Communications, 2025)
# Where “and” joins values, the source holds several entries; their conditions need not be identical. Equal entries are not always repeated. Where two headings read alike, the source gives them in different places.
# Columns and labels:
# SARS-CoV-2 PLpro [1] = target: T1, SARS-CoV-2 PLpro (Severe acute respiratory syndrome coronavirus 2, UniProt P0DTD1); experiment: biochemical; design: inhibition of SARS-CoV-2 PLpro, UbRh dose-response replicate value: unit: %; details: for IC50: IC50 (UbRh) SARS-CoV-2 PLpro
# SARS-CoV PLpro = SARS-CoV PLpro (Severe acute respiratory syndrome coronavirus, UniProt P0C6X7); experiment: biochemical; design: inhibition of SARS-CoV PLpro, UbRh dose-response replicate value: unit: %
# MERS-CoV PLpro = MERS-CoV PLpro (Middle East respiratory syndrome-related coronavirus, UniProt K9N7C7); type: biochemical; design: unit: %
# USP21 = USP21 (Homo sapiens, UniProt Q9UK80); type: biochemical
# [2] = system: panel of human DUBs (ATXN3, Cezanne, OTUD1, USP10, USP21, UCHL3); type: biochemical
# ATXN3 = ATXN3 (Homo sapiens, UniProt P54252); type: biochemical
# Cezanne = Cezanne (Homo sapiens, UniProt Q6GQQ9); type: biochemical
# OTUD1 = OTUD1 (Homo sapiens, UniProt Q5VV17); type: biochemical
# USP10 = USP10 (Homo sapiens, UniProt Q14694); type: biochemical
# UCHL3 = UCHL3 (Homo sapiens, UniProt P15374); type: biochemical
# SARS-CoV-2 PLpro [3] = target: T1, SARS-CoV-2 PLpro; experiment: biochemical; type: binding
# SARS-CoV-2 PLpro [4] = target: T1, SARS-CoV-2 PLpro; experiment: cell-based; type: cell-based
# [5] = system: SARS-CoV-2 clinical isolate VIC001; experiment: microbe, parasite or virus in culture; type: cell-based; details: Severe acute respiratory syndrome coronavirus 2, Vero, read-out: Antiviral EC50 (plaque assay)
# SARS-CoV-2 PLpro [6] = target: T1, SARS-CoV-2 PLpro
# Chain of ATXN3 (P54252 whole entry): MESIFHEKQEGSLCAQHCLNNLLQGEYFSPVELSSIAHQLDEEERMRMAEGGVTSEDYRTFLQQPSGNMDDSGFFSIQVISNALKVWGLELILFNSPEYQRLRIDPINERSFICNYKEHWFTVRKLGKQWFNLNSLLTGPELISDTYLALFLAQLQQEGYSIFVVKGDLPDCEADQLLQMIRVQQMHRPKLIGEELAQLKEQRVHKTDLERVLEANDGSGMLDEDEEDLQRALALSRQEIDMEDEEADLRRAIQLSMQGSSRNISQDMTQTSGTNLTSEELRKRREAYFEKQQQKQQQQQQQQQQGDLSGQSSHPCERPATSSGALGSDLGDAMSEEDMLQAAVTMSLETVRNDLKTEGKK
# Chain of USP21 (Q9UK80 whole entry): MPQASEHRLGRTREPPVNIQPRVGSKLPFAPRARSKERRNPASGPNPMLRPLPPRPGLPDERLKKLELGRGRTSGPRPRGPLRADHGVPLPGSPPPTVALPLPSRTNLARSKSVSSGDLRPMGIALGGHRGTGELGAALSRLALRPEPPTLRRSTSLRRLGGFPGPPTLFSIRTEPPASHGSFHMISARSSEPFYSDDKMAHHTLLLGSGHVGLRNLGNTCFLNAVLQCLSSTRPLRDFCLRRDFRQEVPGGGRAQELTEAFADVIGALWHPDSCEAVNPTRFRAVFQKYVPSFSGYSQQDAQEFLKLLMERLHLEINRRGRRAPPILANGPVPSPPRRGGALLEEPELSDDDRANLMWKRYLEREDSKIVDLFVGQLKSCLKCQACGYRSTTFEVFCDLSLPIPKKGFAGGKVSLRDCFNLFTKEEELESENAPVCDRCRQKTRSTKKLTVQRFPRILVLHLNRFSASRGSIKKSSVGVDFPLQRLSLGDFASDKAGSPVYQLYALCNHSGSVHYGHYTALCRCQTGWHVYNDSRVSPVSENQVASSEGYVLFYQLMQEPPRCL
# Chain of Cezanne (Q6GQQ9 whole entry): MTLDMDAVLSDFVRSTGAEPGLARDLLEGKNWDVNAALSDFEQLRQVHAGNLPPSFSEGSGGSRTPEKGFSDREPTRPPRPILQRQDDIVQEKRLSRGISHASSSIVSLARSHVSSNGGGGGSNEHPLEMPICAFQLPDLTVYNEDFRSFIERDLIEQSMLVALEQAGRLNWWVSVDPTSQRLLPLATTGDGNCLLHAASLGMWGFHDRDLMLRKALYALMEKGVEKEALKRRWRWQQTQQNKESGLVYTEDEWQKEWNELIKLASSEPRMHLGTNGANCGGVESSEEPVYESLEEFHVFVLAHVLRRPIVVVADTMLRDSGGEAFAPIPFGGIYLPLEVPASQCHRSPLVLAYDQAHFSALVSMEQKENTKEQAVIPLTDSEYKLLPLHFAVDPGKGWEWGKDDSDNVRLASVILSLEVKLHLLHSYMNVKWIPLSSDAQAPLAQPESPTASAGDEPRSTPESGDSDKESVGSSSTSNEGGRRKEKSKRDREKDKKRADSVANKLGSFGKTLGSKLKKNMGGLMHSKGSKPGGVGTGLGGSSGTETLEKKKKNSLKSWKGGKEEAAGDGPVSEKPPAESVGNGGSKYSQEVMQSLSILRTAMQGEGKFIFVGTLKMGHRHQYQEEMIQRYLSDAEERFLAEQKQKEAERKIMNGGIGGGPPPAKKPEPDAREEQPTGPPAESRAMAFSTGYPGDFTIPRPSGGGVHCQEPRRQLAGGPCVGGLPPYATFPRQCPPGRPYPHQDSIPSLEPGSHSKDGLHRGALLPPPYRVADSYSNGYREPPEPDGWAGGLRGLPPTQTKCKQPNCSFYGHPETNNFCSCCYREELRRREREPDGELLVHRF
# Chain of UCHL3 (P15374 whole entry): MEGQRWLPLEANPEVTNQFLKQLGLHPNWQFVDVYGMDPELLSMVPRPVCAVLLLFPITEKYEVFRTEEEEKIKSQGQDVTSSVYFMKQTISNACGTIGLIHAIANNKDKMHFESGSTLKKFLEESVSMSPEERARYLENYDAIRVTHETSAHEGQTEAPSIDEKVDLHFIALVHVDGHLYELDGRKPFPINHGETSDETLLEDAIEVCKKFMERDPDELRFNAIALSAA
# Chain of OTUD1 (Q5VV17 whole entry): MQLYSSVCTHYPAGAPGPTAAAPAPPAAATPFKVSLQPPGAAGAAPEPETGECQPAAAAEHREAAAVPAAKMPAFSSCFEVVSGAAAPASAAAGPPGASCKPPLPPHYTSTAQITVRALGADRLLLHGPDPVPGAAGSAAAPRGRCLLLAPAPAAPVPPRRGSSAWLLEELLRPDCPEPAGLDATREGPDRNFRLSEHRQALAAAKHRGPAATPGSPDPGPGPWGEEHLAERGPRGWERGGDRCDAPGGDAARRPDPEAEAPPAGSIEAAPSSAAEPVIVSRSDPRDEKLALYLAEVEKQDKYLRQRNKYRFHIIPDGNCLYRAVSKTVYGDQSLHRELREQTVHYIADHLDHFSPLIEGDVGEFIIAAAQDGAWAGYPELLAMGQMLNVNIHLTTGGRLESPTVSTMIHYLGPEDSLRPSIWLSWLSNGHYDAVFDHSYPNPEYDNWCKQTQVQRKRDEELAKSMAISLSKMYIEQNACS
# Chain of USP10 (Q14694 whole entry): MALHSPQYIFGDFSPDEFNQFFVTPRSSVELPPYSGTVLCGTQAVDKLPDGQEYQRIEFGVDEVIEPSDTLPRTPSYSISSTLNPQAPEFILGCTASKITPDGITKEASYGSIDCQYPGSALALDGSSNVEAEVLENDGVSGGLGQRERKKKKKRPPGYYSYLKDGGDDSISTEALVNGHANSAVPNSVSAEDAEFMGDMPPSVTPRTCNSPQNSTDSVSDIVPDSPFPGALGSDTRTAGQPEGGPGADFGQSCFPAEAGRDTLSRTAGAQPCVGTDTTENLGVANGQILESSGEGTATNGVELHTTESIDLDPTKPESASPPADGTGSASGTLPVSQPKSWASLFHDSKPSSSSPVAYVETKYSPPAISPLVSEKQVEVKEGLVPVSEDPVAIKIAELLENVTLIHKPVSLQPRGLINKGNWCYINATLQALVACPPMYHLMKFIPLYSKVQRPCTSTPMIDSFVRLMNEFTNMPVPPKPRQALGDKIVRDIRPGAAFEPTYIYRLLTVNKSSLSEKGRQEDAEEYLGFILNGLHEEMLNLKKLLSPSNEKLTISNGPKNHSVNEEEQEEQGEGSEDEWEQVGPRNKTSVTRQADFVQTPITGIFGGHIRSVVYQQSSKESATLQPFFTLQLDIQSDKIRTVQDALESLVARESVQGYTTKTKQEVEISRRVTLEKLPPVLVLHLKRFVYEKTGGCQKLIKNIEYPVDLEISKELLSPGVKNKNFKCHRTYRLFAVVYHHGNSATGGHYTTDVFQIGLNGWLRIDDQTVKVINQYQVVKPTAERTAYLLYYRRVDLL
# Chain of MERS-CoV PLpro (K9N7C7 1482-1803 limits assumed): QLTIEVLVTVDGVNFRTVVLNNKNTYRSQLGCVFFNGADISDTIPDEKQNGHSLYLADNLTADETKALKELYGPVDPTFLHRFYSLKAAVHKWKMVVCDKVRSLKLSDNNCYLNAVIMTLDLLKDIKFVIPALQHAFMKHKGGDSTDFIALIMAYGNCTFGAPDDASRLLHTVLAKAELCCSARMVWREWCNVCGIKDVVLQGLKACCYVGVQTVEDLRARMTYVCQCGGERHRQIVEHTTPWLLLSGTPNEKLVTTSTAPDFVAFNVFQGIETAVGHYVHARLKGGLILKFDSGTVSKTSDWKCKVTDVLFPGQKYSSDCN
smiles,measurement,setting,value
COc1ccc2cc(C(=O)C3CCCN(C4CCCC4)C3)ccc2c1 (centres unmarked) [WEHI-P1],"inhibition of SARS-CoV-2 PLpro, UbRh dose-response replicate value",SARS-CoV-2 PLpro [1]; Conc 0.00498 µM,-13.6732 and 2.3131 and -7.154 and -11.0795 and 7.963 and 4.4501 and -10.0607 and -6.545 and -6.343 and -0.9072 and -6.992 and -7.263 and -7.665
same,"inhibition of SARS-CoV-2 PLpro, UbRh dose-response replicate value",SARS-CoV-2 PLpro [1]; Conc 0.0149 µM,-0.6879 and 3.256 and -8.137 and -12.3628 and 2.155 and 5.8571 and -3.891 and -5.469 and -7.734 and -5.926 and -7.3449
same,"inhibition of SARS-CoV-2 PLpro, UbRh dose-response replicate value",SARS-CoV-2 PLpro [1]; Conc 0.0448 µM,1.291 and 3.348 and -5.506 and -4.578 and 2.528 and 6.172 and -28.1035 and -26.7808 and -16.0105 and -8.021 and -5.978 and -3.428 and -7.448
same,"inhibition of SARS-CoV-2 PLpro, UbRh dose-response replicate value",SARS-CoV-2 PLpro [1]; Conc 3.63 µM,55.1403 and 49.1297 and 72.2398 and 55.1118 and 68.8818 and 68.3038 and 70.3435 and 68.1584 and 58.3924 and 61.1283 and 62.8891 and 58.2582 and 68.987
same,"inhibition of SARS-CoV-2 PLpro, UbRh dose-response replicate value",SARS-CoV-2 PLpro [1]; Conc 98 µM,124.948 and 118.973 and 118.719 and 93.4483 and 92.6536 and 95.3254 and 94.6236 and 97.9546 and 83.9689 and 107.904 and 110.814 and 103.242 and 108.864
same,IC50,SARS-CoV-2 PLpro [1],2600 nM
same,IC50,SARS-CoV-2 PLpro [1]; Supplementary Fig. 2b,2600 nM
same,"inhibition of SARS-CoV PLpro, UbRh dose-response replicate value",SARS-CoV PLpro; Conc 3.63 µM,43.26 and 41.4233 and 40.1519 and 56.4827 and 56.7648 and 53.2219
same,inhibition at 3.63 µM,"SARS-CoV PLpro; Conc 3.63 µM, read-out: inhibition of SARS-CoV PLpro, UbRh dose-response replicate value",43.3%
same,"inhibition of SARS-CoV PLpro, UbRh dose-response replicate value",SARS-CoV PLpro; Conc 98 µM,89.3568 and 87.1144 and 87.3043 and 96.6611 and 96.2974 and 95.7026 and 96.1294
same,inhibition at 98 µM,"SARS-CoV PLpro; Conc 98 µM, read-out: inhibition of SARS-CoV PLpro, UbRh dose-response replicate value",89.2%
same,inhibition at […],"SARS-CoV PLpro; read-out: inhibition of SARS-CoV PLpro, UbRh dose-response replicate value",84.6% and 69.7%
same,"inhibition of MERS-CoV PLpro, UbRh dose-response replicate value",MERS-CoV PLpro; Conc 0.00498 µM,-4.614 and -3.364 and 0.3636 and -5.453 and 6.667 and 6.005 and 3.997 and 2.909
same,"inhibition of MERS-CoV PLpro, UbRh dose-response replicate value",MERS-CoV PLpro; Conc 0.0149 µM,-3.576 and -5.738 and -4.053 and -6.88 and 8.95 and 6.88 and 9.641 and 2.2309
same,"inhibition of MERS-CoV PLpro, UbRh dose-response replicate value",MERS-CoV PLpro; Conc 0.0448 µM,-7.082 and -11.2097 and -12.434 and -8.665 and 6.324 and 5.9119 and 5.395 and 2.288
same,"inhibition of MERS-CoV PLpro, UbRh dose-response replicate value",MERS-CoV PLpro; Conc 3.63 µM,-1.223 and -11.7007 and -12.14 and -8.237 and 5.5159 and 6.719
same,"inhibition of MERS-CoV PLpro, UbRh dose-response replicate value",MERS-CoV PLpro; Conc 98 µM,-14.4158 and -18.412 and -13.4114 and -9.9342 and 9.6505 and 10.1326 and 6.766 and 4.38
same,"inhibition of USP21, UbRh dose-response replicate value",USP21,-17.3591 and -12.2032 and -18.6472 and -15.4853 and -14.4522 and -19.2052 and -17.9515 and -18.065 and -8.946 and -2.6161 and -10.7527 and -20.9333 and -7.844 and -9.819 and -13.8068 and -21.9255 and -4.154 and -2.302 and -19.2663 and -19.4961
same,"inhibition of USP21, UbRh dose-response replicate value",USP21; Conc 0.00498 µM,-6.669 and -13.4551 and -20.5516 and -18.4137
same,"inhibition of USP21, UbRh dose-response replicate value",USP21; Conc 0.0149 µM,-7.696 and -8.6697 and -11.755 and -9.346
same,"inhibition of USP21, UbRh dose-response replicate value",USP21; Conc 0.0448 µM,-2.649 and -22.6918 and -12.9296
same,"inhibition of USP21, UbRh dose-response replicate value",USP21; Conc 3.63 µM,-16.692 and -5.223 and -23.134 and -16.0626
same,"inhibition of USP21, UbRh dose-response replicate value",USP21; Conc 98 µM,-13.9863 and -21.5031 and -20.8818 and -12.5688
same,cross-reactivity in a panel of human DUBs,[2],no cross-reactivity
same,"inhibition of ATXN3, UbRh dose-response replicate value",ATXN3,-8.641 and -11.1993 and -4.869 and 4.344 and -19.3823 and -18.001 and -0.7368 and -2.308 and -5.209 and -10.7506 and -7.279 and -8.7353 and -8.48 and -12.1184 and -9.5356 and 0.5603 and -15.7867 and -11.4036 and -7.524
same,"inhibition of ATXN3, UbRh dose-response replicate value",ATXN3; Conc 0.00498 µM,-12.0566 and -16.4021 and -4.426 and -13.5708
same,"inhibition of ATXN3, UbRh dose-response replicate value",ATXN3; Conc 0.0149 µM,-11.0193 and -9.528 and -12.1815 and -14.805
same,"inhibition of ATXN3, UbRh dose-response replicate value",ATXN3; Conc 0.0448 µM,-8.047 and -9.745 and -7.569 and -8.486
same,"inhibition of ATXN3, UbRh dose-response replicate value",ATXN3; Conc 3.63 µM,-16.703 and -12.2662 and -13.9462 and -9.635
same,"inhibition of ATXN3, UbRh dose-response replicate value",ATXN3; Conc 98 µM,-16.0742 and -15.5502
same,"inhibition of Cezanne, UbRh dose-response replicate value",Cezanne,-18.912 and -15.6278 and -2.351 and 1.9841 and -10.3668 and -26.3356 and -4.177 and -7.241 and -8.329 and -15.5113 and -9.927 and -0.3728 and -12.3899 and 0.2487 and -4.422 and -3.858 and -10.5494 and -3.083 and 1.0161 and -4.6404
same,"inhibition of Cezanne, UbRh dose-response replicate value",Cezanne; Conc 0.00498 µM,-5.218 and -11.645 and -1.408 and -0.02766
same,"inhibition of Cezanne, UbRh dose-response replicate value",Cezanne; Conc 0.0149 µM,-1.15 and -11.2131 and -3.066 and -2.486
same,"inhibition of Cezanne, UbRh dose-response replicate value",Cezanne; Conc 0.0448 µM,-8.614 and -15.6484 and -3.285 and 0.7467
same,"inhibition of Cezanne, UbRh dose-response replicate value",Cezanne; Conc 3.63 µM,-15.9321 and -15.0246 and -5.238 and -9.8
same,"inhibition of Cezanne, UbRh dose-response replicate value",Cezanne; Conc 98 µM,-30.6124 and -29.2216 and 3.466 and 11.4705
same,"inhibition of OTUD1, UbRh dose-response replicate value",OTUD1,-10.6037 and -11.2887 and -9.792 and -7.833 and -12.7647 and -0.9075 and 2.163 and -5.7654 and -7.285 and -0.8912 and -5.258 and -7.97 and -1.274 and -2.017 and -4.922 and 1.155 and -8.198 and 3.097 and -7.799 and -6.802
same,"inhibition of OTUD1, UbRh dose-response replicate value",OTUD1; Conc 0.00498 µM,-2.098 and -3.857
same,"inhibition of OTUD1, UbRh dose-response replicate value",OTUD1; Conc 0.0149 µM,0.5359 and 5.168 and -4.672 and 0.608
same,"inhibition of OTUD1, UbRh dose-response replicate value",OTUD1; Conc 0.0448 µM,0.07106 and -1.381 and -0.3944 and -8.021
same,"inhibition of OTUD1, UbRh dose-response replicate value",OTUD1; Conc 3.63 µM,-3.7862 and -2.718 and -1.038 and -8.072
same,"inhibition of OTUD1, UbRh dose-response replicate value",OTUD1; Conc 98 µM,-27.4599 and -27.4028
same,"inhibition of USP10, UbRh dose-response replicate value",USP10,-17.9764 and -33.546 and -1.777 and -1.005 and -2.268 and -5.196 and 1.437 and 7.331 and 6.946 and -2.385 and 10.5944 and 12.4488 and -3.943 and -14.76 and 8.848 and 13.2594 and -3.1801
same,"inhibition of USP10, UbRh dose-response replicate value",USP10; Conc 0.00498 µM,10.1443 and 12.7446 and 2.857 and 1.607
same,"inhibition of USP10, UbRh dose-response replicate value",USP10; Conc 0.0149 µM,1.87 and 11.8374 and 1.723 and 2.761
same,"inhibition of USP10, UbRh dose-response replicate value",USP10; Conc 0.0448 µM,5.874 and 6.2633 and -3.914
same,"inhibition of USP10, UbRh dose-response replicate value",USP10; Conc 3.63 µM,-1.745 and -4.256 and -2.239 and 0.7005
same,"inhibition of USP10, UbRh dose-response replicate value",USP10; Conc 98 µM,-22.6046 and 5.737 and 3.4
same,"inhibition of UCHL3, UbRh dose-response replicate value",UCHL3,-15.7962 and -10.6437 and -3.089 and -8.07 and -1.79 and -9.314 and -4.512 and -11.432 and -8.325 and -0.3429 and -5.346 and 2.661 and -3.761 and -0.9211 and -0.1651 and 0.1836 and -9.635 and -0.5542 and -7.392
same,"inhibition of UCHL3, UbRh dose-response replicate value",UCHL3; Conc 0.00498 µM,-2.717 and -5.843 and -1.232 and -3.133
same,"inhibition of UCHL3, UbRh dose-response replicate value",UCHL3; Conc 0.0149 µM,-3.556 and -7.101 and -2.8889 and -5.9018
same,"inhibition of UCHL3, UbRh dose-response replicate value",UCHL3; Conc 0.0448 µM,-13.5671 and -9.936 and 2.559 and -5.235
same,"inhibition of UCHL3, UbRh dose-response replicate value",UCHL3; Conc 3.63 µM,-2.824 and -12.2743 and -7.514 and -7.892
same,"inhibition of UCHL3, UbRh dose-response replicate value",UCHL3; Conc 98 µM,-24.2494 and -16.3148 and -12.8948 and -13.0616
same,Kd,SARS-CoV-2 PLpro [3],8.3 µM
same,EC50,SARS-CoV-2 PLpro [4],> 20 µM
same,EC50,[5],> 2000 nM
same,Molar Mass (kDa),SARS-CoV-2 PLpro [6],32.7945 kDa and 33.2145 kDa and 33.2745 kDa
same,observed molar mass of PLpro (SEC-MALS),SARS-CoV-2 PLpro [6],34.9 kDa
